*1 amine or outer side, *2 acyl side, *3 side chain or, on linkers, in order; H or OH if unused. Where a SMILES comes first, the peptide text is derived from it. Bridges are numbered along the chain shown (N, C = ends). Where no end group is shown, it is not given here. [ ]: non-standard residue; d: D form. The star is where a group is joined. Ttds = 1,13-diamino-4,7,10-trioxatridecan-succinamic acid, NCCCOCCOCCOCCCNC(=O)CCC(=O)*; NH(1-deoxy-D-glucityl) = OC[C@@H](O)[C@@H](O)[C@H](O)[C@@H](O)CN*; DOTA = O=C(O)CN1CCN(CC(=O)O)CCN(CC(=O)*)CCN(CC(=O)O)CC1; Trp(5-Cl) = N[C@@H](Cc1c[nH]c2ccc(Cl)cc12)C(=O)O; Pyridine(2,6-diCH2) = c1cc(C[*:1])nc(C[*:2])c1; AETO = 2-aminoethane-1-thiol oxidized; mXylylene = c1cc(C[*:1])cc(C[*:2])c1; Glutaryl = O=C(CCCC(=O)[*:2])[*:1]; Hyp = O=C(O)[C@@H]1C[C@@H](O)CN1; X1 = O=C(CN1CCC(N[*:1])CC1)[*:2]; Cysteamide = C(CS[*:3])N[*:1]; hLeu = CC(C)CC[C@H](N)C(=O)O; Api = NC1(C(=O)O)CCNCC1; Dap = NC[C@H](N)C(=O)O; Aib = CC(C)(N)C(=O)O
T1: GIPR (CHO-K1-hGIPR cells) (Homo sapiens, UniProt P48546)
T1 construct: host or cells: CHO-K1
T1 sequence (P48546 22-466): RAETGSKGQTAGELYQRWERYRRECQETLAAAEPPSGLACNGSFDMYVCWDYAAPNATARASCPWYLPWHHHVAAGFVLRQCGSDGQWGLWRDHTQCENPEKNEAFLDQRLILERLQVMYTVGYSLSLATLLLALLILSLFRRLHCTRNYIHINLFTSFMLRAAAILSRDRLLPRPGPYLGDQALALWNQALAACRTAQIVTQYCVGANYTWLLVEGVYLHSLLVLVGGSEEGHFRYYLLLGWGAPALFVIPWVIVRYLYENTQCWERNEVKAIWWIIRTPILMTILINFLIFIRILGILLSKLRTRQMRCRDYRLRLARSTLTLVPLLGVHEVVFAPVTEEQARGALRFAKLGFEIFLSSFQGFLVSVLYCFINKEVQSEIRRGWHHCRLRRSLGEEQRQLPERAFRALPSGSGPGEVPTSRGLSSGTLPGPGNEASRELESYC

T2: human GIP receptor (bioGIPR) (Homo sapiens, UniProt P48546)
T2 construct: Biotinylate extracellular of the human GIP receptor (bioGIPR, Proteros biostructures GmbH, lot #02/2b); purchased Proteros biostructures GmbH lot #02/2b
T2 sequence (P48546 22-138 limits assumed): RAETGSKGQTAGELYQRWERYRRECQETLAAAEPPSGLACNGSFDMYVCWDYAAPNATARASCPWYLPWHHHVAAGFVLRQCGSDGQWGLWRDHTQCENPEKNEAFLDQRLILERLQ


Key:
[1] = target: T1, GIPR (CHO-K1-hGIPR cells); assay: FACS binding assay; conditions: competition with 20 nM GIP-057, 4° C., 1 hour, read-out: pIC50 Category (converted)
Outline: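 Read-out: flow cytometric median fluorescence intensity, APC/Cy5 channel, plotted vs peptide conc.; 4PL fit → EC50/pEC50 or IC50/pIC50. Cells: CHO-K1-hGIPR, Accutase-detached, 500.000/mL in PBS + 1% FCS. Detection: APC-streptavidin 1 μg/mL, 30 min, on ice.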

[2] = target: T2, human GIP receptor (bioGIPR); assay: Surface plasmon resonance (SPR) based binding assay; conditions: Single Cycle Kinetic mode, 25° C.
Procedure: Surface plasmon resonance (SPR) studies were performed using a Biacore™ T200 SPR system. Briefly, polarized light is directed towards a gold-labeled sensor surface, and minimum intensity reflected light is detected. The angle of reflected light changes as molecules bind and dissociate.
Biotinylate extracellular of the human GIP receptor (bioGIPR, Proteros biostructures GmbH, lot #02/2b) was captured on a biotin capture chip (Biotin CAPture Kit, Series S, GE Healthcare, Cat #28-9202-34). bioGIPR was diluted in Running Buffer (HBST from Xantec Analytics; […], 0.05% Tween20, 0.1% DMSO) to a final concentration 100 nM and than flushed over the Fc-capture chip to immobilized ˜3500 RUs.
Stock solutions of test compounds were prepared by dissolving each compound in DMSO. DMSO stock solution were diluted 1:1000 in Running Buffer without DMSO. Further sequential dilutions were made with Running Buffer containing 0.1% DMSO. SPR binding analyses were performed in Single Cycle Kinetic (SCK) mode at 25° C. Flow cell without immobilized bioGIPR served as reference flowcell. After each SCK run, bioGIRP and the Biotin Capture Reagent was removed with Regeneration Solution (6 M Guanidium, 0.75 M NaOH).
In between every three SCK measurements, a blank run with Running Buffer instead of test compound was included to correct for baseline drifts (double blanking method).
For each test compound, SPR raw data in the form of resonance units (RU) were plotted as sensorgrams using the Biacore™ T200 control software. The signal from the blank sensorgram was subtracted from that of the test compound sensorgram (blank corrected). The blank corrected sensorgram was corrected for baseline drift by subtracting the sensorgram of a SCK run without the test compound (running buffer only). The association rate (kon), dissociation rate (koff), dissociation constant (KD), and t1/2 were calculated from blank corrected SPR data using the 1:1 Langmuir binding model from the Biacore™ T200 evaluation software. Raw data and fit results were imported as text files in IDBS. The pKD value (negative decadic logarithm of dissociation constant) was calculated in the IDBS excel template.

[3] = target: human Gastric Inhibitory Peptide Receptor (human) (UniProt P48546); assay: FACS competition with GIP-057 on CHO-K1-hGIPR cells; pIC50 category A: >8.0

IC50 [1] [nM] | t1/2 Category ([2]; SPR dissociation half-life) | Kd ([2]; SPR, 1:1 Langmuir binding model, read-out: pKD Category (converted)) [nM] | pIC50 [3] [pic50] | Molecule
< 10 | A (t1/2 values>15 min) | < 1 | – | CC[C@H](C)[C@@H]1NC(=O)[C@H](CC(C)C)NC(=O)C2(CCN(C(=O)CN3CCN(CC(=O)O)CCN(CC(=O)O)CCN(CC(=O)O)CC3)CC2)NC(=O)[C@@H](NC(=O)[C@@H](CC(C)C)NC(=O)[C@H](CCC(=O)O)NC(=O)[C@@H]2C[C@@H](O)CN2C(=O)[C@H](Cc2c[nH]c3ccc(Cl)cc23)NC(=O)[C@H](Cc2c[nH]c3ccccc23)NC(=O)[C@H](CC(=O)O)NC(=O)CN2CCC(NC(=O)CCCC(=O)NC[C@H](O)[C@@H](O)[C@H](O)[C@H](O)CO)CC2)CSCc2cccc(n2)CSC[C@@H](C(=O)NC2CCN(CC(=O)N[C@H](CCC(=O)NC[C@H](O)[C@@H](O)[C@H](O)[C@H](O)CO)C(N)=O)CC2)NC1=O [GIP-011, AGLU-Glutar-APAc-Asp-Trp-5Clw-Hyp-Glu-leu-[Cys(2Lut)-Apc(DOTA)-Leu-Ile-Cys]-APAc-glu(AGLU)-NH2] ({NH(1-deoxy-D-glucityl)-Glutaryl}-[X1]DW[Trp(5-Cl)][Hyp]E[dL]C[Api](DOTA)LIC[X1][dE](NH(1-deoxy-D-glucityl))-NH2; linker 8-12 via Pyridine(2,6-diCH2))
– | – | – | > 8 | {DOTA-Ttds}-DW[Trp(5-Cl)][Hyp]E[dL]C[Aib]LI[Cysteamide] (linker (positions not given here) via mXylylene; not fully specified (bridges); printed as DOTA-Ttds-Asp-Trp-5Clw-Hyp-Glu-leu-[Cys(3MeBn)-Aib-Leu-Ile-AET]) [DOTA-Ttds-Asp-Trp-5Clw-Hyp-Glu-leu-[Cys(3MeBn)-Aib-Leu-Ile-AET]]
– | – | – | > 8 | {DOTA-Ttds}-DW[Trp(5-Cl)]PE[dL]C[Aib][hLeu]I[Cysteamide] (linker (positions not given here) via mXylylene; not fully specified (bridges); printed as DOTA-Ttds-Asp-Trp-5Clw-Pro-Glu-leu-[Cys(3MeBn)-Aib-Hle-Ile-AET]) [DOTA-Ttds-Asp-Trp-5Clw-Pro-Glu-leu-[Cys(3MeBn)-Aib-Hle-Ile-AET]]
– | – | – | > 8 | {DOTA-Ttds}-DW[Trp(5-Cl)]PE[dL][Dap][Aib]LI[AETO] (linker (positions not given here) via mXylylene; not fully specified (bridges)) [DOTA-Ttds-Asp-Trp-5Clw-Pro-Glu-leu-[Dap(3MeBn)-Aib-Leu-Ile-AETO]]

Reference: US20250296971A1, “GASTRIC INHIBITORY PEPTIDE RECEPTOR LIGANDS” (priority 2021, published 2025)
